One may read the pIC50 as the negative decadic logarithm of the IC50, by convention in mol/L.

Structures are written as SMILES. pIC50: −log10 of the molar value. Bridge positions count the residues as written; N and C are the ends. Peptide text beside a SMILES is read from it.

One experiment concerns human Nav1.7 channel. Conditions: ref [47]; cited from earlier work.
The next experiment deals with T1, human Nav1.7 (Homo sapiens, UniProt Q15858).
T1 construct: expressed in transfected cells
The experiment in a line: Automated patch-clamp (Nanion SyncroPatch 384PE) on CHO cells expressing human Nav1.7. Conditions: for time constant of inhibition: mono-exponential fit. The class given is cell-based. The source says: We used a CHO mammalian cell line expressing the human Nav1.7 instead of Xenopus oocytes for the pharmacological evaluation. […] 100-ms pulses from −100 mV to −10 mV were applied at a frequency of 0.2 Hz and various concentrations of PhlTx1 were applied to the cells. […] Using a manual patch clamp, which is better suited to investigate current recovery from block than an automated patch clamp that requires several washing steps, we investigated the reversibility properties of a PhlTx1 block.
CHO cells stably expressing the human Nav1.7 cells were cultured in Dulbecco’s Modified Eagle’s Medium (DMEM) supplemented with 10% fetal calf serum, 1 mM pyruvic acid, 4 mM glutamine, 10 IU/mL penicillin and 10 μg/mL streptomycin (Gibco, Grand Island, NY, USA), and incubated at 37 °C in a 5% CO2 atmosphere. For automated patch-clamp recordings, cells were detached with trypsin and floating single cells were diluted (~300,000 cells/mL) in medium contained (in mM): 4 KCl, 140 NaCl, 5 Glucose, 10 HEPES (pH 7.4, osmolarity 290 mOsm).
Chips with single-hole and high-resistance (~6–7 MΩ) were used for CHO cell recordings. Voltage pulses and whole-cell recordings were achieved using the PatchControl384 v1.5.2 software (Nanion, Munich, Germany) and the Biomek v1.0 interface (Beckman Coulter). Prior recordings, dissociated cells were shaken at 60 RPM in a cell hotel reservoir at 10 °C. After cell catching, sealing, whole-cell formation, liquid application, recording, and data acquisition were all performed sequentially and automatically. […] Whole-cell experiments were done at −100 mV holding potential and at room temperature (18–22 °C), while currents triggered at −10 mV test potential were sampled at 20 kHz. Stimulation frequency was set at 0.2 Hz. Toxins were prepared at various concentrations in the extracellular solution, itself supplemented with 0.3% BSA. […] Compound solutions were diluted 3 times in the patch-clamp recording well by adding 30 μL to 60 μL external solution to reach the final reported concentration and the test volume of 90 μL. Percentages of current inhibitions were measured at the end of a 12- to 15-min application time (12-min for fast blocking toxins; 15-min for slow blocking ones). A single concentration of peptide was tested on each cell for building the full-inhibition curves.

T1 sequence (Q15858 whole entry): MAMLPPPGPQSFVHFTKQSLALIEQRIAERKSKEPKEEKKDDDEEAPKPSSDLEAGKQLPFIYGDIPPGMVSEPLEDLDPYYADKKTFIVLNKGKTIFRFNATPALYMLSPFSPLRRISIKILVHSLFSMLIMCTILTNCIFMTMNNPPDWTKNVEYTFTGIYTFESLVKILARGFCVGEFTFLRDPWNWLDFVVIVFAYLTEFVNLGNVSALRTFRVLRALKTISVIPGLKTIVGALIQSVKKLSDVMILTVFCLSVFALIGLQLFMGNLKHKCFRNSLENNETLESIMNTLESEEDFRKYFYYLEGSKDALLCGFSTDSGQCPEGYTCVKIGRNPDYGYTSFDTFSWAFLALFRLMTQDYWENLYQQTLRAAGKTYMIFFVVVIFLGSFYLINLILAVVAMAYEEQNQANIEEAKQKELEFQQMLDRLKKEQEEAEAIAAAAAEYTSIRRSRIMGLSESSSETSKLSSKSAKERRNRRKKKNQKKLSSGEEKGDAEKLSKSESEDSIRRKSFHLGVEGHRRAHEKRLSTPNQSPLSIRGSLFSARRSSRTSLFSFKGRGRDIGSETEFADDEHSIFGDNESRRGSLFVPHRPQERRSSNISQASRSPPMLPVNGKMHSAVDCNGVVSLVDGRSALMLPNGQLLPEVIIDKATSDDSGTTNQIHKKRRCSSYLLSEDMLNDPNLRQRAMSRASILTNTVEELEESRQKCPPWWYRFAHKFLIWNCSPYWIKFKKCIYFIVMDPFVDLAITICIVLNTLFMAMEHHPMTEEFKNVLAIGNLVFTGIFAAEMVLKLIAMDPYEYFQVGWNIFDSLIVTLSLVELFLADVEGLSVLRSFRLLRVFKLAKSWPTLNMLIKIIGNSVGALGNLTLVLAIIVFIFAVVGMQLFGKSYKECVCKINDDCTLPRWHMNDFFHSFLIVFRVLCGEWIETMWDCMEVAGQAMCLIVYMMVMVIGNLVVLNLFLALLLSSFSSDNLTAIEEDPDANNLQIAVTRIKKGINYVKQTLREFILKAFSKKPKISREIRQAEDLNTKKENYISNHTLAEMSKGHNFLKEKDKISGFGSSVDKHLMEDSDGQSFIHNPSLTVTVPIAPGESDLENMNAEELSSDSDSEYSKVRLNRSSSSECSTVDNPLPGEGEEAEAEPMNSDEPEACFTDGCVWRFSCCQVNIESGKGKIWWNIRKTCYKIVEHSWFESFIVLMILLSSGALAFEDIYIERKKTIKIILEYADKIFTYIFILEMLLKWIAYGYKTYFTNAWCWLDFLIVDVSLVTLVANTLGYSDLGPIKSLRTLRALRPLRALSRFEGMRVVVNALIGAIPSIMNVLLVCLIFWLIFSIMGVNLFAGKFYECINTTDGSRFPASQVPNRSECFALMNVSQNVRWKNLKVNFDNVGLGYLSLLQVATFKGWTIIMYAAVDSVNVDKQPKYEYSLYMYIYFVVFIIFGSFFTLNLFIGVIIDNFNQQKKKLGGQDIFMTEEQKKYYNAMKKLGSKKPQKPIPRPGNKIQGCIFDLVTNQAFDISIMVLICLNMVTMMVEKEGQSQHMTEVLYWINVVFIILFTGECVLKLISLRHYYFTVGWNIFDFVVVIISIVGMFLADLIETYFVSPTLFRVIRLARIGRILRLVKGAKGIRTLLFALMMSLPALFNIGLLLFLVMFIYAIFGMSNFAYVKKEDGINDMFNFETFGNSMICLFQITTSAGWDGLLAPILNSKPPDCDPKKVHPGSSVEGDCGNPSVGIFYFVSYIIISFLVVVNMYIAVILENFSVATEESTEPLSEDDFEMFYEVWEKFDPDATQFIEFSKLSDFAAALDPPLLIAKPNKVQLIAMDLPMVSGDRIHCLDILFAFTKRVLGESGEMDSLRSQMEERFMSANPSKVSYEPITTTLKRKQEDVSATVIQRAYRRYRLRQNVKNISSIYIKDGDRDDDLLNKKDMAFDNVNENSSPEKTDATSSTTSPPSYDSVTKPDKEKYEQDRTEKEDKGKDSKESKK

Take `CC(C)C[C@@H]1NC(=O)[C@@H](NC(=O)[C@H](C)N)CSSC[C@@H]2NC(=O)[C@@H]3CSSC[C@@H](C(=O)N[C@@H](CCCNC(=N)N)C(=O)N[C@@H](Cc4ccc(O)cc4)C(=O)N[C@@H](CCCCN)C(=O)N[C@@H](CC(C)C)C(=O)N[C@@H](Cc4ccccc4)C(=O)O)NC(=O)[C@H](Cc4c[nH]c5ccccc45)NC(=O)[C@@H]4CCCN4C(=O)[C@H](Cc4ccc(O)cc4)NC(=O)[C@H](CCCCN)NC(=O)[C@H](Cc4c[nH]c5ccccc45)NC(=O)[C@H](CCC(=O)O)NC(=O)[C@H](CSSC[C@H](NC(=O)[C@H](CO)NC(=O)[C@H](CC(=O)O)NC(=O)[C@H](Cc4c[nH]c5ccccc45)NC(=O)[C@H](CCC(N)=O)NC(=O)CNC1=O)C(=O)N[C@@H](CC(=O)O)C(=O)N1CCC[C@H]1C(=O)N[C@@H](CCCCN)C(=O)N[C@@H](C)C(=O)N[C@@H](CO)C(=O)N[C@@H](CCCCN)C(=O)N3)NC(=O)[C@H](C)NC(=O)[C@H](Cc1ccc(O)cc1)NC(=O)[C@H](CC(N)=O)NC(=O)[C@@H]1CCCN1C2=O` [PhlTx1, Phlotoxin-1] (H-ACLGQWDSCDPKASKCCPNYACEWKYPWCRYKLF-OH; disulfide 2-17, 9-22, 16-29; N-terminus and C-terminus assumed): the values for the pIC50 in the experiment on human Nav1.7 channel and on human Nav1.7 were 6.60 and 7.41, respectively. The “time constant of inhibition” value on human Nav1.7 (33 nM, n = 4) stood at 253 s; on human Nav1.7 (333 nM, n = 6) it was 97 s; at human Nav1.7 (1 μM, n = 8), 36 s. The “block of Nav1.7 inward current” value at human Nav1.7 (100 nM toxin, end of application (about 12-13 min), CHO hNav1.7) was “above 50%”. Moreover, on human Nav1.7 (100 nM, mono-exponential fit (PhlTx1 n = 8)), the “time constant of inhibition (τ)” value was 159 s. The “c value of mono-exponential decay fit (block not complete)” value at human Nav1.7 (1 μM PhlTx1, normalized current) is 0.09. At human Nav1.7 (same dose-response fit as IC50, CHO hNav1.7 automated patch-clamp), this compound yielded a Hill value of 1.53. Further, at human Nav1.7 (two most efficient concentrations (333 nM and 1 μM)), the highest achievable inhibition is recorded as 85%–92%.

The record behind these values is article PMC6628435, “Chemical Synthesis, Proper Folding, Nav Channel Selectivity Profile and Analgesic Properties of the Spider Peptide Phlotoxin 1” (Toxins, 2019).
